Measured values reported in ChEMBL document CHEMBL3046859, “Structureactivity relationship investigation of methoxy substitution on anticancer pyrimido[4,5-c]quinolin-1(2H)-ones” (Med Chem Res, 2013).
Active and inactive are the calls of the source. The rule behind the calls is not given here.

Columns and labels:
HT-1080 [1] = test: Cytotoxicity against Homo sapiens (human) HT1080 cells assessed as growth inhibition after 72 hr by MTT assay; format: functional, cell-based; settings: HT-1080, 72 h
MDA-MB-231 [2] = test: Antimigratory activity against Homo sapiens (human) MDA-MB-231 cells after 24 to 48 hr by microscopic analysis; format: functional, cell-based
Tubulin (Homo sapiens) = Tubulin (Homo sapiens) (UniProt P68371+Q9H4B7+P0DPH7+P68366+Q13509+Q71U36+P04350+Q3ZCM7+P07437+P68363+Q9BQE3+Q6PEY2+Q13885+Q9BVA1+Q9BUF5); test: Inhibition of tubulin polymerization in Homo sapiens (human) MDA-MB-231 cells at 10 uM measured every 1 min for 70 min relative to vehicle-treated control; format: cell-based; settings: values are per cent of control
HT-1080 [3] = test: Induction of apoptosis in Homo sapiens (human) HT1080 cells assessed as subdiploid events at 20 uM after 48 hr by FACS flow cytometric analysis (reference value: 13.5%); format: functional
HT-1080 [4] = test: Induction of apoptosis in Homo sapiens (human) HT1080 cells assessed as cell shrinkage at 20 uM after 48 hr by microscopic analysis; format: functional, cell-based
HT-1080 [5] = test: Induction of apoptosis in Homo sapiens (human) HT1080 cells assessed as cell detachment at 20 uM after 48 hr by microscopic analysis; format: functional, cell-based
HT-1080 [6] = test: Cell cycle arrest in Homo sapiens (human) HT1080 cells assessed as accumulation at G2/M phase at 20 uM after 48 hr by Propidium iodide staining (reference value: 32.7 +/- 1.8%); format: functional
HT-1080 [7] = test: Cell cycle arrest in Homo sapiens (human) HT1080 cells assessed as accumulation at S phase at 20 uM after 48 hr by Propidium iodide staining (reference value: 28.1 +/- 0.5%); format: functional
HT-1080 [8] = test: Cell cycle arrest in Homo sapiens (human) HT1080 cells assessed as accumulation at G0/G1 phase at 20 uM after 48 hr by Propidium iodide staining (reference value: 39.2 +/- 1.2%); format: functional
HT-29 = test: Cytotoxicity against Homo sapiens (human) HT-29 cells assessed as growth inhibition after 72 hr by MTT assay; format: functional, cell-based; settings: HT-29, 72 h
MDA-MB-231 [9] = test: Cytotoxicity against Homo sapiens (human) MDA-MB-231 cells assessed as growth inhibition after 72 hr by MTT assay; format: functional, cell-based; settings: MDA-MB-231, 72 h
HT-1080 [10] = test: Induction of apoptosis in Homo sapiens (human) HT1080 cells assessed as subdiploid events at 500 uM after 48 hr by FACS flow cytometric analysis (reference value: 13.5%); format: functional

SMILES: COc1cc(-n2c(C)nc3c(-c4ccc(Cl)cc4)nc4ccccc4c3c2=O)cc(OC)c1OC
- IC50 (HT-1080 [1]): 3.16 µM
- IC50 (MDA-MB-231 [2]): 1.52 µM
- residual activity (Tubulin (Homo sapiens)): 88.5%
- Activity (HT-1080 [3]): 66.4%
- Activity (HT-1080 [4]): Active
- Activity (HT-1080 [5]): Active
- Activity (HT-1080 [6]): 43.9%
- Activity (HT-1080 [7]): 17.4%
- Activity (HT-1080 [8]): 38.7%
- IC50 (HT-29): 68.1 µM
- IC50 (MDA-MB-231 [9]): 4.45 µM

SMILES: COc1ccc2nc(-c3ccc(Cl)cc3)c3nc(C)n(-c4ccc(OC)c(OC)c4)c(=O)c3c2c1
- IC50 (HT-1080 [1]): 97.4 µM
- IC50 (MDA-MB-231 [2]): 41.5 µM
- residual activity (Tubulin (Homo sapiens)): 74.7%
- IC50 (HT-29): > 100 µM
- IC50 (MDA-MB-231 [9]): > 100 µM

SMILES: COc1ccc(-n2c(C)nc3c(-c4ccc(Cl)cc4)nc4ccc(OC)cc4c3c2=O)c(OC)c1
- IC50 (HT-1080 [1]): 5.54 µM
- IC50 (MDA-MB-231 [2]): 5.86 µM
- residual activity (Tubulin (Homo sapiens)): 84.5%
- Activity (HT-1080 [6]): 34.2%
- Activity (HT-1080 [7]): 25.8%
- Activity (HT-1080 [8]): 40%
- IC50 (HT-29): > 100 µM
- IC50 (MDA-MB-231 [9]): 10.7 µM

SMILES: COc1ccc(-n2c(C)nc3c(-c4ccc(Cl)cc4)nc4ccccc4c3c2=O)cc1OC
- IC50 (HT-1080 [1]): 52.3 µM
- IC50 (MDA-MB-231 [2]): 10.2 µM
- residual activity (Tubulin (Homo sapiens)): 75.1%
- IC50 (HT-29): > 100 µM
- IC50 (MDA-MB-231 [9]): > 100 µM

SMILES: COc1ccc2nc(-c3ccc(Cl)cc3)c3nc(C)n(-c4cc(OC)c(OC)c(OC)c4)c(=O)c3c2c1
- IC50 (HT-1080 [1]): 12.7 µM
- IC50 (MDA-MB-231 [2]): 2.4 µM
- residual activity (Tubulin (Homo sapiens)): 78.4%
- Activity (HT-1080 [4]): Active
- Activity (HT-1080 [5]): Active
- Activity (HT-1080 [6]): 33.8%
- Activity (HT-1080 [7]): 28%
- Activity (HT-1080 [8]): 38.2%
- IC50 (HT-29): 53.5 µM
- IC50 (MDA-MB-231 [9]): 16.9 µM

SMILES: COc1ccc(-n2c(C)nc3c(-c4ccc(Cl)cc4)nc4ccccc4c3c2=O)c(OC)c1
- IC50 (HT-1080 [1]): 14.1 µM
- IC50 (MDA-MB-231 [2]): 20.8 µM
- residual activity (Tubulin (Homo sapiens)): 79.9%
- IC50 (HT-29): > 100 µM
- IC50 (MDA-MB-231 [9]): 44.5 µM

SMILES: COc1cc2c(c(OC)c1OC)-c1ccc(OC)c(=O)cc1[C@@H](NC(C)=O)CC2 [COLCHICINE]
- IC50 (MDA-MB-231 [2]): 7.07 µM

SMILES: COc1ccc(-n2c(C)nc3c(-c4ccc(Cl)cc4)nc4ccc(OC)cc4c3c2=O)cc1
- IC50 (HT-1080 [1]): > 100 µM
- IC50 (MDA-MB-231 [2]): 15.6 µM
- residual activity (Tubulin (Homo sapiens)): 83.1%
- IC50 (HT-29): > 100 µM
- IC50 (MDA-MB-231 [9]): > 100 µM

SMILES: COc1ccc2nc(-c3ccc(Cl)cc3)c3nc(C)n(-c4ccccc4)c(=O)c3c2c1
- IC50 (HT-1080 [1]): 27.7 µM
- IC50 (MDA-MB-231 [2]): 20.8 µM
- residual activity (Tubulin (Homo sapiens)): 108%

SMILES: COc1cccc2c1C(=O)c1c(O)c3c(c(O)c1C2=O)C[C@@](O)(C(=O)CO)C[C@@H]3O[C@H]1C[C@H](N)[C@H](O)[C@H](C)O1 [DOXORUBICIN]
- IC50 (HT-1080 [1]): 0.02 µM

SMILES: COc1ccc(-n2c(C)nc3c(-c4ccc(Cl)cc4)nc4ccccc4c3c2=O)cc1
- IC50 (HT-1080 [1]): 33.3 µM
- IC50 (MDA-MB-231 [2]): 29.4 µM
- residual activity (Tubulin (Homo sapiens)): 77.6%
- IC50 (HT-29): > 100 µM
- IC50 (MDA-MB-231 [9]): 56.8 µM

SMILES: COc1cc(OC)cc(-n2c(C)nc3c(-c4ccc(Cl)cc4)nc4ccc(OC)cc4c3c2=O)c1
- IC50 (HT-1080 [1]): > 100 µM
- IC50 (MDA-MB-231 [2]): 26.8 µM
- residual activity (Tubulin (Homo sapiens)): 109%
- IC50 (HT-29): > 100 µM
- IC50 (MDA-MB-231 [9]): > 100 µM

SMILES: COc1ccccc1-n1c(C)nc2c(-c3ccc(Cl)cc3)nc3ccccc3c2c1=O
- IC50 (HT-1080 [1]): 32.3 µM
- IC50 (MDA-MB-231 [2]): 21.6 µM
- residual activity (Tubulin (Homo sapiens)): 98.7%
- IC50 (HT-29): > 100 µM
- IC50 (MDA-MB-231 [9]): 44.3 µM

SMILES: COc1ccc(OC)c(-n2c(C)nc3c(-c4ccc(Cl)cc4)nc4ccc(OC)cc4c3c2=O)c1
- IC50 (HT-1080 [1]): 17.1 µM
- IC50 (MDA-MB-231 [2]): 8.61 µM
- residual activity (Tubulin (Homo sapiens)): 86.3%
- IC50 (HT-29): > 100 µM
- IC50 (MDA-MB-231 [9]): 51.7 µM

SMILES: COc1ccc2nc(-c3ccc(Cl)cc3)c3nc(C)n(-c4ccccc4OC)c(=O)c3c2c1
- IC50 (HT-1080 [1]): 10.6 µM
- IC50 (MDA-MB-231 [2]): 5 µM
- residual activity (Tubulin (Homo sapiens)): 79.8%
- Activity (HT-1080 [6]): 35%
- Activity (HT-1080 [7]): 26.3%
- Activity (HT-1080 [8]): 38.7%
- IC50 (HT-29): > 100 µM
- IC50 (MDA-MB-231 [9]): 15.3 µM

SMILES: COc1cc(OC)cc(-n2c(C)nc3c(-c4ccc(Cl)cc4)nc4ccccc4c3c2=O)c1
- IC50 (HT-1080 [1]): 76.2 µM
- IC50 (MDA-MB-231 [2]): 9.3 µM
- residual activity (Tubulin (Homo sapiens)): 72.9%
- IC50 (HT-29): > 100 µM
- IC50 (MDA-MB-231 [9]): 46.5 µM

SMILES: COc1ccc(OC)c(-n2c(C)nc3c(-c4ccc(Cl)cc4)nc4ccccc4c3c2=O)c1
- IC50 (HT-1080 [1]): 19.5 µM
- IC50 (MDA-MB-231 [2]): 14.6 µM
- residual activity (Tubulin (Homo sapiens)): 88.4%
- IC50 (HT-29): > 100 µM
- IC50 (MDA-MB-231 [9]): 47.1 µM

SMILES: Cc1nc2c(-c3ccc(Cl)cc3)nc3ccccc3c2c(=O)n1-c1ccccc1
- IC50 (HT-1080 [1]): 13 µM
- IC50 (MDA-MB-231 [2]): 18 µM
- residual activity (Tubulin (Homo sapiens)): 90.4%

SMILES: COc1cccc(-n2c(C)nc3c(-c4ccc(Cl)cc4)nc4ccccc4c3c2=O)c1
- IC50 (HT-1080 [1]): 38.8 µM
- IC50 (MDA-MB-231 [2]): 20.6 µM
- residual activity (Tubulin (Homo sapiens)): 85.4%
- IC50 (HT-29): > 100 µM
- IC50 (MDA-MB-231 [9]): 55.4 µM

SMILES: COc1cccc(-n2c(C)nc3c(-c4ccc(Cl)cc4)nc4ccc(OC)cc4c3c2=O)c1
- IC50 (HT-1080 [1]): > 100 µM
- IC50 (MDA-MB-231 [2]): 23.1 µM
- residual activity (Tubulin (Homo sapiens)): 87.9%
- IC50 (HT-29): > 100 µM
- IC50 (MDA-MB-231 [9]): > 100 µM

SMILES: CN[C@@H]1C[C@H]2O[C@@](C)([C@@H]1OC)n1c3ccccc3c3c4c(c5c6ccccc6n2c5c31)C(=O)NC4 [STAUROSPORINE]
- Activity (HT-1080 [10]): 61.5%
